Measured values reported in the NIST ThermoML archive (doi:10.1016/j.jct.2012.11.004).

Experiment: mn = molality of the nth substance listed, in mol/kg
Settings: 101 kPa, Liquid; for mass density: Vibrating tube method; for speed of sound: Pulse-echo method

O=S(=O)([O-])C(F)(F)F.[Na+] [sodium trifluoromethanesulfonate] + CN(C)C=O
Settings	mass density, 283.15 K [kg/m3]	mass density, 293.15 K [kg/m3]	mass density, 298.15 K [kg/m3]	mass density, 303.15 K [kg/m3]	mass density, 313.15 K [kg/m3]	mass density, 323.15 K [kg/m3]	mass density, 333.15 K [kg/m3]	speed of sound, 298.15 K [m/s]
m1 = 0.03242	961.31	951.8	947.04	942.26	932.69	923.07	913.39	–
m1 = 0.04301	962.37	952.86	948.1	943.33	933.75	924.13	914.46	–
m1 = 0.05649	963.72	954.21	949.44	944.67	935.1	925.48	915.81	–
m1 = 0.07002	965.07	955.56	950.8	946.03	936.46	926.83	917.16	1456.8
m1 = 0.08981	967.04	957.54	952.77	948	938.43	928.81	919.14	1456.7
m1 = 0.1114	969.21	959.69	954.93	950.16	940.6	930.98	921.31	1456.6
m1 = 0.1445	972.54	963.02	958.25	953.48	943.91	934.29	924.63	1456.4
m1 = 0.1748	975.61	966.08	961.32	956.54	946.97	937.35	927.69	1456.2
m1 = 0.2026	978.41	968.91	964.12	959.34	949.76	940.13	930.5	1456.1
m1 = 0.239	982.12	972.58	967.82	963.03	953.44	943.82	934.15	1455.9
m1 = 0.2681	985.09	975.55	970.79	966.01	956.41	946.79	937.1	1455.7

O=S(=O)([O-])C(F)(F)F.[Na+] [sodium trifluoromethanesulfonate] + CC(=O)N(C)C
Settings	mass density, 283.15 K [kg/m3]	mass density, 293.15 K [kg/m3]	mass density, 298.15 K [kg/m3]	mass density, 303.15 K [kg/m3]	mass density, 313.15 K [kg/m3]	mass density, 323.15 K [kg/m3]	mass density, 333.15 K [kg/m3]	speed of sound, 298.15 K [m/s]
m1 = 0.03102	953.06	943.85	939.25	934.64	925.39	916.13	906.83	–
m1 = 0.04251	954.18	944.96	940.36	935.76	926.52	917.26	907.96	–
m1 = 0.05604	955.5	946.28	941.68	937.08	927.84	918.59	909.29	1456
m1 = 0.07266	957.11	947.9	943.3	938.69	929.46	920.21	910.92	1455.8
m1 = 0.08844	958.64	949.43	944.83	940.23	931	921.75	912.46	1455.7
m1 = 0.1113	960.86	951.66	947.06	942.45	933.22	923.98	914.7	1455.5
m1 = 0.1446	964.1	954.89	950.29	945.68	936.46	927.21	917.94	1455.2
m1 = 0.174	966.97	957.75	953.15	948.54	939.35	930.09	920.85	1455
m1 = 0.2018	969.69	960.49	955.89	951.28	942.06	932.83	923.57	1454.7
m1 = 0.2378	973.2	964	959.39	954.79	945.58	936.36	927.11	1454.3
m1 = 0.2675	976.18	966.97	962.37	957.77	948.55	939.32	930.07	1453.9

O=S(=O)([O-])C(F)(F)F.O=S(=O)([O-])C(F)(F)F.O=S(=O)([O-])C(F)(F)F.[La+3] [lanthanum(III) trifluoromethanesulfonate] + CN(C)C=O
Settings	mass density, 283.15 K [kg/m3]	mass density, 293.15 K [kg/m3]	mass density, 298.15 K [kg/m3]	mass density, 303.15 K [kg/m3]	mass density, 313.15 K [kg/m3]	mass density, 323.15 K [kg/m3]	mass density, 333.15 K [kg/m3]	speed of sound, 298.15 K [m/s]
m1 = 0.02162	966.85	957.33	952.56	947.79	938.21	928.58	918.9	1456
m1 = 0.02944	970.04	960.51	955.75	950.97	941.39	931.77	922.1	1455.5
m1 = 0.03946	974.16	964.64	959.87	955.09	945.5	935.87	926.19	1455
m1 = 0.04997	978.49	968.96	964.2	959.42	949.83	940.2	930.52	1454.3
m1 = 0.06066	–	–	–	–	–	–	–	1453.6
m1 = 0.0607	982.91	973.38	968.61	963.83	954.24	944.62	934.95	–
m1 = 0.07649	989.57	980.03	975.24	970.46	960.87	951.24	941.56	1452.5
m1 = 0.09777	998.57	989.02	984.24	979.46	969.86	960.23	950.54	1450.8
m1 = 0.1172	1006.98	997.41	992.63	987.84	978.22	968.57	958.88	1449.4
m1 = 0.136	1015.16	1005.59	1000.8	996	986.37	976.72	967.03	1448
m1 = 0.1591	1025.46	1015.87	1011.07	1006.26	996.63	986.96	977.26	1446.3
m1 = 0.1792	1034.5	1024.89	1020.09	1015.28	1005.64	995.97	986.26	1444.9
